In data set [1] the test system is V. vulnificus biofilm. In words: Eradication of mature biofilm, crystal violet assay. The format is cell-based. Particulars: reduces initial biomass of 48 h mature biofilm by 90%, 24 h treatment. The protocol: Unless otherwise noted, all biofilm experiments utilized the following procedure for the formation of a 48 h matured biofilm. V. vulnificus inoculated LB medium was incubated for 18 h with shaking (100 rpm) at 37° C. This bacteria suspension was dilute 1:500 (v/v) in LB media supplemented with 2% w/v NaCl (LB S) at pH 5.5. The optical density of the bacteria suspension at 600 nm (OD600) was monitored overtime. Once in its logarithmic growth phase (OD600=0.1, which is ~1.5×10^7 CFU/mL), biofilms were formed by static incubation of bacteria at 37° C. for 48 hours either in chamber slides of multi-well plates. Every 24 hours, the biofilms were gently washed three times with 1×PBS and add fresh LBS was added.
(§1) The effect of treatment with free Doxy, Doxy-GNP, CS-Doxy-GNP, and HA-CS-Doxy-GNP of 48 h aged V. vulnificus biofilms was assessed by examining biofilm morphology and quantifying biomass and cell viability. Morphology assessment via ESEM, LIVE/DEAD viability staining, colony enumeration and crystal violet staining were performed after incubation of the biofilms with the various treatment groups at a Doxy concentration of 50 μg/mL in 1×PBS or with a 1×PBS control for 24 hours at 37° C.
Biofilm biomass was assessed for 48 h mature biofilms formed in 96-well plates. […] Following 24 hours of incubation, the biofilm biomass was quantified using crystal violet staining as described earlier.

For data set [2], the system named is V. vulnificus biofilm. In words: Colony counting assay of treated mature biofilm. It counts as cell-based. As to conditions: 50 μg/mL Doxy, 24 h. The procedure:
as §1, with “C. Colony enumeration was also conducted by first dispersing biofilms formed in 48-well plates by sonication following treatment. Each sample was then serially diluted in LB, and […] of the dilution was plated onto LB agar plates. Agar plates were imaged and CFU were counted following incubation for 24 h at 37° C.” for “C.”

In the next data set the test system is HUVEC. In words: CCK-8 cytotoxicity assay, HUVEC. It counts as cell-based, human. Particulars: 50 μg/mL Doxy, 24 hour. The procedure:
(§2) The cytotoxicity of each NP formulation was evaluated for HUVEC and […] using a CCK-8 viability assay. Briefly, HUVEC and NIH 3T3 cells were cultured at a density of ~5000 cells/cm^2 in EGM-2 endothelial cell growth medium and DMEM supplemented with 10% (v/v) FBS and 1% (v/v) penicillin/streptomycin, respectively at 37° C. with 5% CO2. After 24 hours, cells were treated with Doxy, Doxy-GNPs, CS-Doxy-GNP and HA-CS-Doxy-GNP at a Doxy concentration of 50 μg/mL in the respective media. Cells treated with media only and wells containing no cells or NPs were included as PCs and NCs, respectively. Following a 24 hour incubation, the media was removed, cells were rinsed with 1×PBS three times and 10 μL of CCK-8 solutions was added to each well. After incubation for 4 hours at 37° C. with 5% CO2, the absorbance was read at 450 nm (OD450) using a plate reader. Normalized cell viability was calculated using the following equation. [formula]
On the technique in general: Formazan colour is commonly taken as a measure of viable cells.

The test system of data set [3] is V. vulnificus biofilm. In words: Inhibition of biofilm formation, crystal violet staining. The format is cell-based. As to conditions: inhibits biofilm formation by 80%, 24-hour incubation. The procedure:
The investigate the effect of free Doxy and Doxy-loaded NPs on V. vulnificus biofilm formation, V. vulnificus was prepared for biofilm formation. When adding the bacteria in its logarithmic growth phase to 96-well plates, free Doxy or Doxy-loaded NPs were added simultaneously at varying concentrations. Bacteria lacking Doxy treatment were included as a PC and LBS without bacteria was included as a NC. Following a 24-hour incubation in static conditions, the biofilm biomass was quantified using crystal violet staining. Briefly, the supernatant media was gently removed, and biofilms were washed three times with 1×PBS. Next biofilms were stained with 200 μL 0.1% (w/v) crystal violet in 1×PBS for 15 minutes, followed by three 1×PBS washes. The stain was eluted by incubation with 200 μL of 100% ethanol with shaking (100 rpm) for 2 min at RT. The absorbance at 570 nm (OD570) was measured using a plate reader. Normalized biofilm biomass was calculated as follows: [formula]

For the next data set, the system named is NIH 3T3 cells. As to the kind of experiment: CCK-8 cytotoxicity assay, NIH 3T3. The format is cell-based, mouse. As to conditions: NIH 3T3, 50 μg/mL Doxy, 24 hour. The procedure:
as §2

Data set [4] relates to V. vulnificus. As to the kind of experiment: Ex vivo pig skin infection model. It counts as cell-based. The procedure:
Frozen porcine skin tissue was thawed and washed with 1×PBS. A biopsy punch (8 mm) was used to create tissue sections from freshly thawed tissue. A 1.5-mm deep well was created in the center of each of these skin samples using a smaller 3-mm biopsy punch. The tissue pieces were sterilized by immersing in 70% (v/v) ethanol for 2 hours and drying for 30 minutes in a CellGard™ Energy Saver class II, type A2 biosafety cabinet (NuAire, Plymouth, MN). The sterile tissue was then placed on soft TSB agar plates containing 0.5% (w/v) agar with 100 μg/mL vancomycin. Note that vancomycin was included as a common antibiotic against gram-positive to prevent contamination by non-V. vulnificus bacteria. The skin was then infected by adding 10 μL of V. vulnificus suspension (OD600=0.1) in the 3 mm diameter well in each sample. The inoculated skin pieces were incubated for 48 hours at 37° C. in a humidified chamber. The tissue samples were transferred to a new agar plate every 24 hours. At 48 hours, 15 μL of Doxy or HA-CS-Doxy-GNP at a Doxy concetration of 10, 50 or 100 μg/mL was added to the infected skin samples and incubated for a further 24 hours. Controls of tissue inoculated with bacteria treated with LBS at pH 5.5 only and tissue without bacteria treated with LBS at pH 5.5 were included as controls. […]

Data set [5] has as its system V. vulnificus. In words: MIC microdilution assay against planktonic bacteria. It counts as cell-based. As to conditions: Vibrio vulnificus, 16-18 hours, Doxy or loaded Doxy concentration. The protocol:
The minimum inhibitory concentrations (MICs) of NPs against V. vulnificus were determined using the microdilution assay as previously reported. See T. Gwisai, N. R. Hollingsworth, S. Cowles, N. Tharmalingam, E. Mylonakis, B. B. Fuchs and A. Shukla, Biomedical Materials, 2017, 12, 045010; D. Alkekhia and A. Shukla, Journal of Biomedical Materials Research Part A, 2019, 107, 1324-1339. Free Doxy and Doxy loaded NPs were diluted 2-fold in LB in 96-well plates to obtain concentrations of Doxy or loaded Doxy ranging from 0.03-4.0 μg/mL. V. vulnificus in LB media in its logarithmic growth phase was added to each well at a final concentration of 1×10^5 colony forming units (CFU)/mL. Positive control (PC) of bacteria cultured in LB only and negative control (NC) of LB without bacteria were included. After 16-18 hours of shaking (100 rpm) at 37° C., OD600 was measured using a plate reader. The normalized bacteria density (%) was calculated as follows: […]
For orientation: Dilution methods test growth across graded concentrations, often in twofold steps.

Counter-ions that a name gives are not always drawn.

With `C[C@H]1c2cccc(O)c2C(=O)C2=C(O)[C@]3(O)C(=O)C(C(N)=O)=C(O)[C@@H](N(C)C)[C@@H]3[C@@H](O)[C@@H]21` [Doxy, doxycycline hydrochloride], the MBEC90 entry with V. vulnificus biofilm [1] is “about 50 μg/mL”. Moreover, in the data set on V. vulnificus biofilm [2], the “reduction in CFU compared to no treatment control” value is listed as 2 log reduction. Also, the results for the cell viability entry in the data set on HUVEC and with NIH 3T3 cells were “about 60%” and “about 70%”, respectively. For the same compound, the MBIC80 entry in the data set on V. vulnificus biofilm [3] is “about 16 μg/mL”. The “number of living bacterial cells compared with untreated pig skin” value in the data set with V. vulnificus [4] (50 μg/mL or 100 μg/mL Doxy, 24 hours) is listed as “significantly reduced”. Moreover, the “mean value of CFU/mL relative to untreated samples (100%)” value in the data set with V. vulnificus [4] (2 days infection, 24 hours treatment, 100 μg/mL Doxy) was found to be 16.42%. Also, the MIC (usually the smallest concentration in the dilution series that meets the test's criterion for growth inhibition) against V. vulnificus [5] turned out to be 0.5 mg/L.

These data come from patent US12691183B2, “Methods of making and using nanoparticles for treatment of bacterial biofilm” (Brown University, priority 2022, dated 2026).
